{"source": "patent US4223024A", "about": "“4\"-O-Alkylgentamicins and sagamicins” (Abbott Laboratories, priority 1979, dated 1980)", "key": {"[1]": {"test_system": "Staphylococcus aureus ATCC 6538P", "assay": "two fold dilution test (MIC), Staphylococcus aureus ATCC 6538P", "type": "cell-based", "details": "Streptomycin Assay Agar with yeast extract, pH 7.9, overnight", "procedure": "(§1) The in vitro antibiotic activity is determined by a two fold dilution test using Streptomycin Assay Agar with yeast extract (at pH 7.9). The inoculum of approximately 1×10^5 of the indicated test organism is delivered by a multiple inoculator. The test is incubated over night.\n(§2) The minimum inhibitory concentrations for the compounds of Example 4, Example 8, compound 1 and Example 12 compound, are set forth in Table II. The minimum inhibitory concentrations (MIC) are expressed in micrograms per ml."}, "[2]": {"test_system": "Streptococcus faecalis ATCC 10541", "assay": "two fold dilution test (MIC), Streptococcus faecalis ATCC 10541", "type": "cell-based", "details": "pH 7.9, overnight; for MIC (minimum inhibitory concentration): Streptomycin Assay Agar with yeast extract", "procedure": "as §1, §2"}, "[3]": {"test_system": "Escherichia coli ATCC 26", "assay": "two fold dilution test (MIC), Escherichia coli ATCC 26", "type": "cell-based", "details": "pH 7.9, overnight; for MIC (minimum inhibitory concentration): Streptomycin Assay Agar with yeast extract", "procedure": "as §1, §2"}, "[4]": {"test_system": "Escherichia coli R3", "assay": "two fold dilution test (MIC), Escherichia coli R3", "type": "cell-based", "details": "Streptomycin Assay Agar with yeast extract, pH 7.9, overnight", "procedure": "as §1, §2"}, "[5]": {"test_system": "Pseudomonas aeruginosa BMH #1", "assay": "two fold dilution test (MIC), Pseudomonas aeruginosa BMH #1", "type": "cell-based", "details": "Streptomycin Assay Agar with yeast extract, pH 7.9, overnight", "procedure": "as §1, §2"}, "[6]": {"test_system": "Bacillis subtilis U. of I1. 10707", "assay": "two fold dilution test (MIC), Bacillis subtilis U. of I1. 10707", "type": "cell-based", "details": "Streptomycin Assay Agar with yeast extract, pH 7.9, overnight", "procedure": "as §1, §2"}, "[7]": {"test_system": "Proteus vulgaris ATCC 6897", "assay": "two fold dilution test (MIC), Proteus vulgaris ATCC 6897", "type": "cell-based", "details": "pH 7.9, overnight; for MIC (minimum inhibitory concentration): Streptomycin Assay Agar with yeast extract", "procedure": "as §1, §2"}, "[8]": {"test_system": "Shigella sonnei ATCC 9290", "assay": "two fold dilution test (MIC), Shigella sonnei ATCC 9290", "type": "cell-based", "details": "pH 7.9, overnight; for MIC (minimum inhibitory concentration): Streptomycin Assay Agar with yeast extract", "procedure": "as §1, §2"}, "[9]": {"test_system": "Salmonella typhi ATCC 9992", "assay": "two fold dilution test (MIC), Salmonella typhi ATCC 9992", "type": "cell-based", "details": "for MIC (minimum inhibitory concentration): Salmonella typhi ATCC 9992, Streptomycin Assay Agar with yeast extract, pH 7.9, overnight", "procedure": "as §1, §2"}, "[10]": {"test_system": "Klebsiella pneumonia ATCC 10031", "assay": "two fold dilution test (MIC), Klebsiella pneumonia ATCC 10031", "type": "cell-based", "details": "pH 7.9, overnight; for MIC (minimum inhibitory concentration): Streptomycin Assay Agar with yeast extract", "procedure": "as §1, §2"}, "[11]": {"details": "compared with gentamicin; background statement; cited from earlier work"}, "[12]": {"test_system": "aerobic gram-negative bacteria", "details": "background statement; cited from earlier work"}, "[13]": {"details": "read-out: MIC (minimum inhibitory concentration)"}}}
{"compound": "CNC1C(O)C(OC2C(N)CC(N)C(OC3OC(CN)CCC3N)C2O)OCC1(C)OC", "note": "(centres unmarked) [Ex 4, 4\"-O-Methylgentamicin C1a]", "values": [{"measurement": "MIC (minimum inhibitory concentration)", "setting": "[1]", "value": 0.005, "unit": "µg/mL"}, {"measurement": "MIC (minimum inhibitory concentration)", "setting": "[2]", "value": 10.000, "unit": "µg/mL"}, {"measurement": "MIC (minimum inhibitory concentration)", "setting": "[3]", "value": 0.005, "unit": "µg/mL"}, {"measurement": "MIC (minimum inhibitory concentration)", "setting": "[4]", "value": 10.000, "unit": "µg/mL"}, {"measurement": "MIC (minimum inhibitory concentration)", "setting": "[5]", "value": 0.63, "unit": "µg/mL"}, {"measurement": "MIC (minimum inhibitory concentration)", "setting": "[6]", "value": 0.005, "unit": "µg/mL"}, {"measurement": "MIC (minimum inhibitory concentration)", "setting": "[7]", "value": 0.08, "unit": "µg/mL"}, {"measurement": "MIC (minimum inhibitory concentration)", "setting": "[8]", "value": 0.04, "unit": "µg/mL"}, {"measurement": "MIC (minimum inhibitory concentration)", "setting": "[9]", "value": 0.01, "unit": "µg/mL"}, {"measurement": "MIC (minimum inhibitory concentration)", "setting": "[10]", "value": 0.005, "unit": "µg/mL"}]}
{"compound": "CNCC1CCC(N)C(OC2C(N)CC(N)C(OC3OCC(C)(OC)C(NC)C3O)C2O)O1", "note": "(centres unmarked) [Ex 8(1), 4\"-O-Methylsagamicin]", "values": [{"measurement": "MIC", "setting": "[1]; ATCC6538P, read-out: MIC (minimum inhibitory concentration)", "value": 0.05, "unit": "µg/mL"}, {"measurement": "MIC", "setting": "[2]; Enterococcus faecalis, ATCC10541, Streptomycin Assay Agar with yeast extract, read-out: MIC (minimum inhibitory concentration)", "value": 12.5, "unit": "µg/mL"}, {"measurement": "MIC", "setting": "[3]; ATCC26, Streptomycin Assay Agar with yeast extract, read-out: MIC (minimum inhibitory concentration)", "value": 0.05, "unit": "µg/mL"}, {"measurement": "MIC", "setting": "[4]; [13]", "value": 3.1, "unit": "µg/mL"}, {"measurement": "MIC", "setting": "[5]; [13]", "value": 0.4, "unit": "µg/mL"}, {"measurement": "MIC", "setting": "[6]; [13]", "value": 0.005, "unit": "µg/mL"}, {"measurement": "MIC", "setting": "[7]; ATCC6897, Streptomycin Assay Agar with yeast extract, read-out: MIC (minimum inhibitory concentration)", "value": 0.05, "unit": "µg/mL"}, {"measurement": "MIC", "setting": "[8]; ATCC9290, Streptomycin Assay Agar with yeast extract, read-out: MIC (minimum inhibitory concentration)", "value": 0.05, "unit": "µg/mL"}, {"measurement": "MIC", "setting": "[9]; Salmonella enterica, pH 7.9, read-out: MIC (minimum inhibitory concentration)", "value": 0.05, "unit": "µg/mL"}, {"measurement": "MIC", "setting": "[10]; Klebsiella pneumoniae, ATCC10031, Streptomycin Assay Agar with yeast extract, read-out: MIC (minimum inhibitory concentration)", "value": 0.05, "unit": "µg/mL"}]}
{"compound": "CNC1C(O)C(OC2C(N)CC(N)C(OC3OC(CN)CCC3N)C2O)OCC1(C)OC", "note": "(stereo not drawn) [Ex 12, 5-Epi-4\"-O-methylgentamicin C1a]", "values": [{"measurement": "MIC (minimum inhibitory concentration)", "setting": "[1]", "value": 0.005, "unit": "µg/mL"}, {"measurement": "MIC (minimum inhibitory concentration)", "setting": "[2]", "value": 25.00, "unit": "µg/mL"}, {"measurement": "MIC (minimum inhibitory concentration)", "setting": "[3]", "value": 0.02, "unit": "µg/mL"}, {"measurement": "MIC (minimum inhibitory concentration)", "setting": "[4]", "value": 2.5, "unit": "µg/mL"}, {"measurement": "MIC (minimum inhibitory concentration)", "setting": "[5]", "value": 0.63, "unit": "µg/mL"}, {"measurement": "MIC (minimum inhibitory concentration)", "setting": "[6]", "value": 0.005, "unit": "µg/mL"}, {"measurement": "MIC (minimum inhibitory concentration)", "setting": "[7]", "value": 0.08, "unit": "µg/mL"}, {"measurement": "MIC (minimum inhibitory concentration)", "setting": "[8]", "value": 0.08, "unit": "µg/mL"}, {"measurement": "MIC (minimum inhibitory concentration)", "setting": "[9]", "value": 0.01, "unit": "µg/mL"}, {"measurement": "MIC (minimum inhibitory concentration)", "setting": "[10]", "value": 0.005, "unit": "µg/mL"}]}
{"compound": "CNCC1CCC(N)C(OC2C(N)CC(N)C(OC3OCC(C)(O)C(NC)C3O)C2O)O1", "note": "(centres unmarked) [Sagamicin, sagamicin]", "values": [{"measurement": "ototoxicity", "setting": "[11]", "value": "lower ototoxicity than does gentamicin"}]}
{"compound": "gentamicin", "values": [{"measurement": "anti-bacterial spectrum / effectiveness", "setting": "[12]", "value": "effective against most aerobic gram-negative bacteria"}]}
